Data on 22 compounds can be found in ChEMBL document CHEMBL1201862, “PubChem BioAssay data set” (2004).

As usually defined, the AC50 is the midpoint of the concentration-response curve, whichever way the signal moves. For orientation: CC50 means the concentration at which the toxic effect on the cells reaches its halfway point.

A short description of one experiment: cells. In kind it is functional.
In experiment [1] the target is T1, Corticotropin-releasing factor receptor 2/Corticotropin-releasing factor-binding protein (Homo sapiens, UniProt P24387+Q13324).
T1 sequence (Q13324 whole entry): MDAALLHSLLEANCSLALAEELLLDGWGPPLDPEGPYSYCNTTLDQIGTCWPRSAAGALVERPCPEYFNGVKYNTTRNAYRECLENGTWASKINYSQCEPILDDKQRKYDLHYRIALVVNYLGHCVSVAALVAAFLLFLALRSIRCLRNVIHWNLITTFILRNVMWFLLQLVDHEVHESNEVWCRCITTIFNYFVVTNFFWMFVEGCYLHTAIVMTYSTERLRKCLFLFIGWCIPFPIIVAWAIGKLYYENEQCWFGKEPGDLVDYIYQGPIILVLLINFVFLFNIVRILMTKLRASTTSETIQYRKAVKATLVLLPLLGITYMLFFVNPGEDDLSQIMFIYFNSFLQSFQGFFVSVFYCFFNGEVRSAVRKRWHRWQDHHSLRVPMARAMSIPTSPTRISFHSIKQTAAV
T1 sequence (P24387 whole entry): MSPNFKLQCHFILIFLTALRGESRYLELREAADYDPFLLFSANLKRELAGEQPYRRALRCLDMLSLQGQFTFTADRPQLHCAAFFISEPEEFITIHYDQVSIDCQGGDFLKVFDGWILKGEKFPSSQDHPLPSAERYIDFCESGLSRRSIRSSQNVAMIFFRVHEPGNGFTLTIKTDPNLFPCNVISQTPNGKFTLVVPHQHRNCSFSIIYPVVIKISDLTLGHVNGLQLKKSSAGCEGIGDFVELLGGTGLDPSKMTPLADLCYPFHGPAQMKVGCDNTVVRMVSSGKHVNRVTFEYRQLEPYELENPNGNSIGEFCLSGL
The experiment in a line: Dose Response confirmation of uHTS hits for small molecule antagonists of the CRF-binding protein and CRF-R2 receptor complex. In kind it is functional. As to conditions: read-out: IC50_Mean.

The target in experiment [2] is T1, Corticotropin-releasing factor receptor 2/Corticotropin-releasing factor-binding protein. The experiment is described as follows: activators of CRF receptor 2 with binding protein – uHTS hits, confirmation (AID 602473). In kind it is functional. As to conditions: read-out: EC50_Mean.
The next experiment deals with T2, Protein skinhead-1 (Caenorhabditis elegans, UniProt P34707).
T2 sequence (P34707 whole entry): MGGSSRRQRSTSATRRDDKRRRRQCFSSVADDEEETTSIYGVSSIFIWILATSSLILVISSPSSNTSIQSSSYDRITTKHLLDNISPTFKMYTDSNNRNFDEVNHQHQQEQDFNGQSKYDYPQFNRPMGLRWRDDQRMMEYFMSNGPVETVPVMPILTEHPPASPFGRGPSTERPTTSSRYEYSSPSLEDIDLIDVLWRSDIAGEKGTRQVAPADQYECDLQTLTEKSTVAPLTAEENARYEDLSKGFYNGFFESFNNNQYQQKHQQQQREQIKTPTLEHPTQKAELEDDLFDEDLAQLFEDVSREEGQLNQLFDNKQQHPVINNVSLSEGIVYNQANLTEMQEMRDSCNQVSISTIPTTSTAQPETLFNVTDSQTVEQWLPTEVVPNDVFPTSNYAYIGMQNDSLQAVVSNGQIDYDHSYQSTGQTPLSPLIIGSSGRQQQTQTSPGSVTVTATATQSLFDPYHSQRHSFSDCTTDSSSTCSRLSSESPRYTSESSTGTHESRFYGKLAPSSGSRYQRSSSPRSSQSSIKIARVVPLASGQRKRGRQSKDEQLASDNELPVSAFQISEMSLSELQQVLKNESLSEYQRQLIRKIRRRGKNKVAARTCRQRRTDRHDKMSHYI
In kind it is functional.

In experiment [3] the target is T3, Replicative DNA helicase DnaB (Mycobacterium tuberculosis, UniProt P9WMR3).
T3 sequence (P9WMR3 whole entry): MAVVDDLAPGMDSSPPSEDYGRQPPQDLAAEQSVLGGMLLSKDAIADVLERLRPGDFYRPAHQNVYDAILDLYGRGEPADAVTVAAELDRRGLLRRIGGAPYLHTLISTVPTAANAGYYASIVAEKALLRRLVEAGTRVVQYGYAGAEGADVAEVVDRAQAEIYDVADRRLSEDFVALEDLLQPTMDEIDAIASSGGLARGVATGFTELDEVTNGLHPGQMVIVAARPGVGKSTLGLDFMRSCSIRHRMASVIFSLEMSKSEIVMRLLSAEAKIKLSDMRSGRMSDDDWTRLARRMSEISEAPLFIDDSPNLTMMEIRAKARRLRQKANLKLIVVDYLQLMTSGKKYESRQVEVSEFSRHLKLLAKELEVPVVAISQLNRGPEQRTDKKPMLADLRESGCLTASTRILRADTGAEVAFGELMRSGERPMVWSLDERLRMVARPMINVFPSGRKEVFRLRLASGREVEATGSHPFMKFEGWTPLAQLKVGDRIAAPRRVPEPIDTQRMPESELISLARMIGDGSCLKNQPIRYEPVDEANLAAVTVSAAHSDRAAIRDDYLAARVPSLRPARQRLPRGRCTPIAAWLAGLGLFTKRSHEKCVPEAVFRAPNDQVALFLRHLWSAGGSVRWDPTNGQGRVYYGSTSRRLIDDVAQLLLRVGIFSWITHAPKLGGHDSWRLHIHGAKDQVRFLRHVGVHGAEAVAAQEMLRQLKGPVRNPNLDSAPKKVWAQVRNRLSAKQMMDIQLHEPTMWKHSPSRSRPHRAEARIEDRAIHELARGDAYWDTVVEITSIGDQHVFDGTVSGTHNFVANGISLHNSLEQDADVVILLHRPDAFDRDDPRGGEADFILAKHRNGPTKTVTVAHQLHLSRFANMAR
The experiment is described as follows: DnaB intein splicing inhibitors, dose response, biochemical, cell-free fluorescence (AID 449749). In kind it is functional.

The target in the next experiment is T4, Protein RecA (Mycobacterium tuberculosis, UniProt P9WHJ3).
T4 sequence (P9WHJ3 whole entry): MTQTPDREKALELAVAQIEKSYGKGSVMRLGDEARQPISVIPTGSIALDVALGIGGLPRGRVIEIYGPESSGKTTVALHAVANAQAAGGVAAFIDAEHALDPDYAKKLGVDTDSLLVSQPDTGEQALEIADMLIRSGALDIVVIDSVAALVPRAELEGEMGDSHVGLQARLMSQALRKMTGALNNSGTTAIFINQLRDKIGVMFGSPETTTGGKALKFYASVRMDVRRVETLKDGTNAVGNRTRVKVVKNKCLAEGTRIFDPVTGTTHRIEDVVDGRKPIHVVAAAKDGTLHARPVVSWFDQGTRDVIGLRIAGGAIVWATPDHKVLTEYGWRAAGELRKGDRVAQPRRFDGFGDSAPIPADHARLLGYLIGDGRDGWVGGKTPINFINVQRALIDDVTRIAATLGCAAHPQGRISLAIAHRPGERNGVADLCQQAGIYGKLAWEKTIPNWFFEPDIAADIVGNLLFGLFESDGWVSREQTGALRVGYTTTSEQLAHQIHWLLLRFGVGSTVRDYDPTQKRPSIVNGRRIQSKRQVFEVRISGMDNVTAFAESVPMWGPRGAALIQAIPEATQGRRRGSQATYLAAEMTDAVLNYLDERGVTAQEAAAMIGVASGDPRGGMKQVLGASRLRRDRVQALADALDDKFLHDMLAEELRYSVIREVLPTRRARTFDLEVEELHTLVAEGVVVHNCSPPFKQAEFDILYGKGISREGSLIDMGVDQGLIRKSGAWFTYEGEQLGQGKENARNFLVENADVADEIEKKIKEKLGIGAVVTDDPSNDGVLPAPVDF
The experiment is described as follows: Fluorescence Cell-Free Homogeneous Dose Retest to Identify Inhibitors of RecA-Intein Splicing Activity. [Related pubchem assays (depositor defined):AID2097, AID2223, AID489010, AID492950]. In kind it is functional.

Experiment [4] can be described thus: HEp-2 cell cytotoxicity, dose response, cytotoxicity control for RSV inhibitor project, HTS (AID 2410). In kind it is functional. The settings on record: human respiratory syncytial virus.
The test system of experiment [5] is Streptococcus sp. 'group A'. The experiment is described as follows: growth inhibition of control SK(-) GAS strain, dose response, counter-screen for streptokinase expression inhibitor project, luminescence, kanamycin, BacTiterGlo, confirmation (AID 1900). In kind it is functional, organism-based. Background: A counterscreen serves to expose hits that act by an unwanted route or on another target.

The next experiment addresses T5, Streptokinase A (Streptococcus pyogenes serotype M1, UniProt P10520).
T5 sequence (P10520 whole entry): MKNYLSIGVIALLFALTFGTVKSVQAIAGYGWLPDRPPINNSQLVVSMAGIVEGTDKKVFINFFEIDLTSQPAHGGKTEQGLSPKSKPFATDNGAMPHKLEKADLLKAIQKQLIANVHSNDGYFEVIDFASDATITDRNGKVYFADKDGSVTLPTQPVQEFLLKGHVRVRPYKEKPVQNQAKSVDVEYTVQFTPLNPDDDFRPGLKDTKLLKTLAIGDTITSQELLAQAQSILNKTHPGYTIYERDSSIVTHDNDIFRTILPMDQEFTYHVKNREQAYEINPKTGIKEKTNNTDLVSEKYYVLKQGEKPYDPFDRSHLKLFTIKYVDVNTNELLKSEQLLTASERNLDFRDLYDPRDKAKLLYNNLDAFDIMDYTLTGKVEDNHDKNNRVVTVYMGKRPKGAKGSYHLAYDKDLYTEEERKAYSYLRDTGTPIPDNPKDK
The experiment is described as follows: S. pyogenes streptokinase expression inhibitors, potency, dose response, plasminogen activation absorbance, OD405 (AID 1914).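 Further: secreted streptokinase activity via plasminogen activation per viability signal from cell pellet.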 In kind it is functional, Streptococcus pyogenes M1 GAS.

The next experiment relates to Streptococcus. The experiment in a line: Group A Streptococcus viability loss, dose response, counter-screen for streptokinase expression inhibitor project, luminescence, BacTiterGlo (AID 1915).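 Further: potency for reduction of bacterial viability or growth.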 In kind it is functional, organism-based.

Calls of active or inactive are those of the source.

On to `CCOC(=O)Nc1cccc(OCC(=O)Nc2ccccc2OC)c1`, for which, in the experiment “cells”, the IC50 is > 50 µM (active).
For the compound `CCOC(=O)C(CC)/C(C)=N\NC(=O)c1cccc(C)c1` (configuration not stated), the IC50 in [1] was > 47.1 µM (inactive). Also, the EC50 in experiment [2] was > 53 µM (inactive).
On the same counts, the results for `CCCNC(=O)c1ccc(CN2CCc3ccccc3C2)cc1` are > 47.1 µM (inactive) and > 53 µM (inactive).
With `CCOC(=O)C(Cc1cc(C(C)=O)ccc1OCC)C(=O)OCC`, the IC50 at Protein skinhead-1 was > 100 µM (inactive).
For the compound `N#Cc1ccc(S(=O)(=O)N2CCN(C(=O)[C@@H]3CCCN3C(=O)c3cccs3)CC2)cc1`, in experiment [1], the IC50 is > 47.1 µM (inactive). Besides, in experiment [2], the EC50 is > 53 µM (inactive).
In the same order, the values of `COc1cccc(CNC(=O)CN(c2ccc(C(C)C)cc2)S(=O)(=O)c2c(C)noc2C)c1` are > 47.1 µM (inactive) and > 53 µM (inactive).
With `CC1C/C(=N\NC(=O)c2ccc([N+](=O)[O-])cc2)CC(C)(C)C1` (configuration not stated), the IC50 in experiment [1] was > 47.1 µM (inactive). Also, in experiment [2], the EC50 is > 53 µM (inactive).
On the same counts, the results for `CCc1nnc(NC(=O)CCC(=O)N2CCN(Cc3cc(Cl)ccc3OC)CC2)s1` are > 47.1 µM (inactive) and > 53 µM (inactive).
Consider `CCOC(=O)CN(C(=O)CNC(=O)c1cccs1)C(C(=O)NC1CCCCC1)c1cccs1` (configuration not stated), for which the IC50 at Protein skinhead-1 was > 100 µM (inactive).
For the compound `Clc1ccc(-c2csc(N3CCSCC3)n2)cc1`, the IC50 at Protein skinhead-1 was > 100 µM (inactive).
Take `Cc1n[nH]c2c1C(c1ccc(OC(=O)c3ccco3)cc1)C(C#N)=C(N)O2` (configuration not stated): the IC50 in the experiment “cells” was 35.2 µM (active). In experiment [3], the AC50 was 9.43 µM (active). The EC50 at Protein RecA is 3.62 µM (active).
For the compound `CN1c2ccsc2/C(=N/Nc2ccccc2)CS1(=O)=O`, in experiment [4], the 50% cytotoxic concentration (CC50) is > 50 µM (active). In addition, the EC50 in experiment [5] was 2.34 µM (active); at Streptokinase A, 4.12 µM (active); with Streptococcus, 16.1 µM (active). Moreover, the IC50 in “cells” is 37 µM (active).
On to `COC(=O)C1=C(CN2CCSCC2)NC(=O)NC1c1cc(C)ccc1C` (configuration not stated), for which the IC50 at Protein skinhead-1 was > 100 µM (inactive).
As for `CC(C)(C)/C(O)=C/c1nc2ccccc2oc1=O`, in the experiment “cells”, the IC50 is 3.06 µM (active).
For `O=C(NCCO)c1nc(C(=O)c2ccc(Cl)cc2)c2ccccc2n1`, the IC50 in [1] was > 47.1 µM (inactive). In experiment [2], the EC50 is > 53 µM (inactive).
With `O=C(NCC1CC1)c1ccc(-c2cn[nH]c2)c2ccoc12`, the IC50 at Protein skinhead-1 is 100 µM (inactive).
`Clc1ccc(-c2cc(CSc3cccc(Cl)c3)on2)cc1`: the IC50 at Protein skinhead-1 was 59.2 µM (inactive).
On to `Cc1cc(C)c2ccc3c(C)c(C)[nH]c3c2n1`, for which the IC50 at Protein skinhead-1 was < 3.13 µM (active).
Regarding `CC(C)COc1ccc(-c2nnc(-c3ccco3)o2)cc1`, the IC50 on Protein skinhead-1 is > 100 µM (inactive).
In the case of `Fc1ccc(C2c3cccn3CCN2C(S)=Nc2cccc(F)c2)cc1` (configuration not stated), in [1], the IC50 was > 47.1 µM (inactive). Moreover, the EC50 in experiment [2] was > 53 µM (inactive).
For `COc1ccc(N(CC(=O)NC2CCCCC2)C(=O)CNC(=O)c2cccs2)cc1`, the IC50 on Protein skinhead-1 is > 100 µM (inactive).
For `Cc1cccc(C(=O)N2CCc3ccccc3C2)c1[N+](=O)[O-]`, in experiment [1], the IC50 was > 47.1 µM (inactive). Besides, the EC50 in experiment [2] was > 53 µM (inactive).
